Read-outs that look alike come from different tables or passages of the source.
Tests used:
[1] = biological target: T1, Akt1 (Homo sapiens, UniProt P31749); assay: AKT1/PKBα KinEASE FP Fluorescein Green Assay (fluorescence polarization kinase kit); format: biochemical; settings: 1 h reaction, read-out: Inhibitory activities against Akt1 (IC50)
T1 construct: purchased 32-021
Method: Second, method for determining the inhibitory activities of substituted nitrogen-containing heterocyclic derivatives in the present invention against Akt1 enzyme:
The inhibitory activities of compounds against AKT1/PKBα are determined by using AKT1/PKBα KinEASE™ FP Fluorescein Green Assay (Green fluorescence detection system of Kinase).
Principle adopted by the fluorescence polarization detection of protein kinase B is a competitive reaction: the phosphorylated tracers labeled with fluorescence will compete with unlabeled phosphorylated products produced by reacting with protein kinase B to combine anti-serine antibodies. […] However, in the reaction mixture containing phosphorylated products, fewer tracers will combine with antibodies (fluorescent tracers are replaced from the antibodies), and signals sent our occur depolarizing. Therefore, the change of polarization is directly related to the activity of protein kinase B in the reaction.
Each of 0.25 μl of compounds with a concentration of 50 μM and the positive control are added to a 384-well plate at room temperature, and each sample is provided with three parallel wells, and then 10 μl of STK Substrate 3 Working Solution, 5 μl of AKT1/PKBα Working Solution, 10 μl of ATP Working Solution are added to each sample respectively, the mixtures are slightly vibrated and shaked for a few minutes. Reaction is carried out just after the adding 10 μl of ATP Working Solution, from this time, reacting for 1 h. After 1 h, 5 μl of STK Stop Mix and 5 μl of STK Antibody Mix are added to each sample respectively to stop the reaction. The samples are maintained for 4 h at room temperature after adding is completed, the polarization values of samples are determined by fluorescence polarization of Microplate Reader (Detection of the signals is valid within 24 h), the inhibitory rate of compounds against the enzyme is calculated by polarization value, and thereby IC50 is calculated.
Experiment is set up four control groups at the same time, which are Buffer Control Wells, Tracer Control Wells, No Enzyme Wells and blank control of dimethyl sulfoxide, respectively. Thus obtained data are used to calculate the inhibitory rate (the preparation methods of above various solution required for determining the activities of compounds against enzyme refer to the specification of the kit of AKT1/PKBα KinEASE™ FP Fluorescein Green Assay Catalog #32-021).

[2] = test system: Human ovarian cancer cell strain OVCAR-8; assay: MTT assay, inhibition of tumor cell growth in vitro, 72 h; format: cell-based; settings: OVCAR-8, MTT, read-out: Antitumor proliferative activities of tumor cell (IC50, μM) OVCAR-8
Method: (§1) First, inhibitory activity on tumor proliferation in vitro is determined and the structure activity relationship is preliminarily studied, in which different solid tumor cell strains are selected for determining the antitumor activities in vitro of the synthesized compounds.
(§2) Cell strains: Human ovarian cancer cell strain (OVCAR8), colon adenocarcinoma cell strain (HCT-116)
Medium: OVCAR8: RPMI 1640+Fetal Bovine Serum
(§3) Preparing method of medicines: Dissolving the medicine in DMSO to make a 50 mM stock solution, and diluting it according to a certain ratio to obtain 5 different concentrations.
(§4) Two selected tumor cells OVCAR8 and HCT-116 are incubated at 37° C. in a 5% CO2 incubator, which are subcultured when cells grow up to a density of 70˜90% (adherent cells are subcultured after digesting by Duck's EDTA) for later experiments.
(§5) Compounds are dissolved and diluted by dimethyl sulfoxide (DMSO), and tumor cells OVCAR8 and HCT-116 are seeded in a 96-well plate at a density of 4000 cells/200 μl/well, 1 μl of the compounds are added to each well with the final concentration of 50 μM, 10 μM, 2 μM, 0.4 μM and 0.08 μM, which is incubated for 72 h at 37° C. in a 5% CO2 incubator with DMSO (1%) as blank control.
(§6) The calculating formula of cell inhibitory rate is: cell inhibitory rate %=(the OD value of the control group−the OD value of the medication group)/the OD value of the control group×100%, the half maximal inhibitory concentration (IC50) is obtained by Bliss method.

[3] = test system: human colon cancer cell strain HCT-116; assay: as above; format: cell-based; settings: HCT-116, MTT, read-out: Antitumor proliferative activities of tumor cell (IC50, μM) HCT-116 (converted)
Method: as §1, §2
HCT-116: RPMI 1640+Fetal Bovine Serum
as §3, §4, §5, §6

T1 sequence (P31749 whole entry): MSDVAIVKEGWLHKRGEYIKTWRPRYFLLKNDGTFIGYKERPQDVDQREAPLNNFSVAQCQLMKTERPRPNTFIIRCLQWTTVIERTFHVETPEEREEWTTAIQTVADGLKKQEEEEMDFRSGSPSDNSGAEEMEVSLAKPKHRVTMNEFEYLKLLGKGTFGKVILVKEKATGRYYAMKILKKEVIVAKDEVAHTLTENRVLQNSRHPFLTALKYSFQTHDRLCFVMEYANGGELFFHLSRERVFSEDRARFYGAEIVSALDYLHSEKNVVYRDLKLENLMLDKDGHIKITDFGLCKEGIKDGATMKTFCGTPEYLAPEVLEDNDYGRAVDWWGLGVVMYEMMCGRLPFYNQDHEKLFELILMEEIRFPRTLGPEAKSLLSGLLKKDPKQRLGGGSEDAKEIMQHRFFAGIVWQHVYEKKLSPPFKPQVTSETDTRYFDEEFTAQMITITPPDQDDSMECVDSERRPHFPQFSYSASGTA

Row | Compound | IC50 [1] | IC50 ([2]; Homo sapiens) | IC50 ([3]; Homo sapiens) | IC50 [2] | IC50 [3]
1 | 5-ethyl-1-methyl-4-(4-ethyl-1-methyl-1H-pyrazol-5-yl)-N-(3,4-trans-4-(piperidin-3-yl)piperidin-3-yl)-1H-pyrrole-2-formamide [Compound 17] | 0.028 µM |  |  | 1.43 µM | 3.4 µM
2 | Cn1nccc1-c1coc(C(=O)N[C@H]2CNCC[C@@H]2c2ccccc2)c1 (racemic) [Compound 1, 4-(1-methyl-1H-pyrazol-5-yl)-N-(3,4-trans-4-phenylpiperidin-3-yl)furan-2-formamide] | 0.072 µM | 1.34 µM | 3.98 µM |  | 
3 | Cn1ncc(Cl)c1-c1cc(C(=O)N[C@H]2CNCC[C@@H]2c2ccc(Cl)cc2)oc1Cl (racemic) [Compound 2, 5-chloro-4-(4-chloro-1-methyl-1H-pyrazol-5-yl)-N-(3,4-trans-4-(4-chlorphenyl)piperidin-3-yl)furan-2-formamide] | 0.099 µM | 6.45 µM | 1.41 µM |  | 
4 | Cn1ncnc1-c1cc(C(=O)N[C@H]2CNCC[C@@H]2c2ccc(C(F)(F)F)cc2)oc1Br (racemic) [Compound 3, 5-bromo-4-(1-methyl-1H-1,2,4-triazol-5-yl)-N-(3,4-trans-4-(4-trifluoromethylphenyl)piperidin-3-yl)furan-2-formamide] | 0.043 µM | 13 µM | 8.9 µM |  | 
5 | Cc1sc(C(=O)N[C@H]2CNCC[C@@H]2c2ccc(F)c(F)c2)cc1-c1c(Cl)cnn1C (racemic) [Compound 5, 5-methyl-4-(4-chloro-1-methyl-1H-pyrazol-5-yl)-N-(3,4-trans-4-(3,4-difluorophenyl)piperidin-3-yl)thiophene-2-formamide] | 0.121 µM | 14.3 µM | 6.8 µM |  | 
6 | Cc1[nH]c(C(=O)N[C@H]2CNCC[C@@H]2c2ccncc2)cc1-c1c(Br)cnn1C (racemic) [Compound 6, 5-methyl-4-(4-bromo-1-methyl-1H-pyrazol-5-yl)-N-(3,4-trans-4-(pyridin-4-yl)piperidin-3-yl)-1H-pyrrole-2-formamide] | 0.032 µM | 3.68 µM | 10.8 µM |  | 
7 | CCc1sc(C(=O)N[C@H]2CNCC[C@@H]2c2cnc3ccccc3c2)cc1-c1c(C(C)C)cnn1C (racemic) [Compound 9] | 0.088 µM | 0.94 µM | 2.35 µM |  | 
8 | Cc1[nH]c(C(=O)N[C@H]2CNCC[C@@H]2c2cccc(C#N)c2)cc1-c1c(Br)cnn1C (racemic) [Compound 10, 5-methyl-4-(1-methyl-4-bromo-1H-pyrazol-5-yl)-N-(3,4-trans-4-(3-cyanophenyl)piperidin-3-yl)-1H-pyrrole-2-formamide] | 0.026 µM | 6.57 µM | 3.31 µM |  | 
9 | Cn1ncc(Cl)c1-c1coc(C(=O)N[C@H]2CNCC[C@@H]2c2ccc(F)c(F)c2)c1 (racemic) [Compound 25, 4-(4-chloro-1-methyl-1H-pyrazol-5-yl)-N-(3,4-trans-4-(3,4-difluorophenyl)piperidin-3-yl)furan-2-formamide] | 0.238 µM | 21.4 µM | 3.19 µM |  | 
10 | Cn1ncc(Br)c1-c1coc(C(=O)N[C@H]2CNCC[C@@H]2c2ccc(Cl)cc2)c1 (racemic) [Compound 26, 4-(4-bromo-1-methyl-1H-pyrazol-5-yl)-N-(3,4-trans-4-(4-chlorphenyl)piperidin-3-yl)furan-2-formamide] | 0.034 µM | 4.89 µM | 2.16 µM |  | 
11 | NC1(C(=O)N[C@@H](CCO)c2ccc(Cl)cc2)CCN(c2nc[nH]c3nccc2-3)CC1 [AZD5363, reference compound] |  |  |  | 7.27 µM | 5.2 µM

Further lines, with some results ahead:

Row | IC50 [1] | IC50 ([2]; Homo sapiens) | IC50 ([3]; Homo sapiens) | Compound | IC50 [2] | IC50 [3]
12 | 0.142 µM | 7.88 µM | 8.33 µM | Cc1nc(C(=O)N[C@H]2CNCC[C@@H]2C2CCCNC2)ccc1-c1c(Br)cnn1C (mixture of isomers) [Compound 59, 6-methyl-5-(4-bromo-1-methyl-1H-pyrazol-5-yl)-N-(3,4-trans-4-(piperidin-3-yl)piperidin-3-yl)pyridinyl-2-formamide] |  | 
13 | 0.048 µM | 5.19 µM | 15.6 µM | CCc1c(-c2ncnn2C)c(Br)n(C)c1C(=O)N[C@H]1CNCC[C@@H]1c1cccc(C(F)(F)F)c1 (racemic) [Compound 4, 5-bromo-3-ethyl-1-methyl-4-(1-methyl-1H-1,2,4-triazol-5-yl)-N-(3,4-trans-4-(3-trifluoromethylphenyl)piperidin-3-yl)-1H-pyrrole-2-formamide] |  | 
14 | 0.062 µM | 3.88 µM | 8.3 µM | Cc1cccc([C@H]2CCNC[C@@H]2NC(=O)c2cc(Cl)c(-c3ncnn3C)o2)c1 (racemic) [Compound 7, 4-chloro-5-(1-methyl-1H-1,2,4-triazol-5-yl)-N-(3,4-trans-4-(3-methylphenyl)piperidin-3-yl)furan-2-formamide] |  | 
15 | 0.082 µM | 9.83 µM | 4.56 µM | Cn1nccc1-c1coc(C(=O)N[C@H]2CNCC[C@@H]2c2ccccc2)n1 (racemic) [Compound 19, 4-(1-methyl-1H-pyrazol-5-yl)-N-(3,4-trans-4-phenylpiperidin-3-yl)oxazole-2-formamide] |  | 
16 | 0.012 µM | 9.91 µM | 2.11 µM | Cc1sc(C(=O)N[C@H]2CNCC[C@@H]2c2ccc(F)c(F)c2)nc1-c1c(Cl)cnn1C (racemic) [Compound 20, 4-(4-chloro-1-methyl-1H-pyrazol-5-yl)-N-(3,4-trans-4-(3,4-difluorophenyl)piperidin-3-yl)-5-methylthiazole-2-formamide] |  | 
17 | 0.119 µM | 10.7 µM | 21 µM | Cn1nccc1-c1coc(C(=O)N[C@H]2CNCC[C@@H]2c2ccc(F)c(F)c2)c1 (racemic) [Compound 21, 4-(1-methyl-1H-pyrazol-5-yl)-N-(3,4-trans-4-(3,4-difluorophenyl)piperidin-3-yl)furan-2-formamide] |  | 
18 | 0.108 µM | 7.89 µM | 12.2 µM | Cn1ncc(Br)c1-c1coc(C(=O)N[C@H]2CNCC[C@@H]2c2ccccc2)c1 (racemic) [Compound 22, 4-(4-bromo-1-methyl-1H-pyrazol-5-yl)-N-(3,4-trans-4-phenylpiperidin-3-yl) furan-2-formamide] |  | 
19 | 0.045 µM | 1.22 µM | 3.78 µM | Cn1ncc(Cl)c1-c1coc(C(=O)N[C@H]2CNCC[C@@H]2c2ccc(Cl)cc2)c1 (racemic) [Compound 23, 4-(4-chloro-1-methyl-1H-pyrazol-5-yl)-N-(3,4-trans-4-(4-chlorphenyl)piperidin-3-yl)furan-2-formamide] |  | 
20 | 0.018 µM | 0.98 µM | 2.9 µM | Cn1ncc(Cl)c1-c1coc(C(=O)N[C@H]2CNCC[C@@H]2c2ccc(C(F)(F)F)cc2)c1 (racemic) [Compound 24, 4-(4-chloro-1-methyl-1H-pyrazol-5-yl)-N-(3,4-trans-4-(4-trifluoromethylphenyl)piperidin-3-yl)furan-2-formamide] |  | 
21 | 0.017 µM | 1.82 µM | 5.89 µM | Cn1ncc(Br)c1-c1coc(C(=O)N[C@H]2CNCC[C@@H]2c2ccc(C(F)(F)F)cc2)c1 (racemic) [Compound 27, 4-(4-bromo-1-methyl-1H-pyrazol-5-yl)-N-(3,4-trans-4-(4-trifluoromethylphenyl)piperidin-3-yl)furan-2-formamide] |  | 

Source: US10233180B2, “Substituted nitrogen-containing heterocyclic derivatives, pharmaceutical compositions comprising the same and applications of antitumor thereof” (ZHEJIANG UNIVERSITY, priority 2014, dated 2019)
